# In patent US4421760A, “β-Lactam antibiotic, its preparation and use” (Beecham Group Limited, priority 1980, dated 1983):
# Where two headings read alike, the source gives them in different places.
# Assays:
# E. coli JT4 β-Lactamase = E. coli JT4 β-Lactamase (Escherichia coli, UniProt P62593); test: β-Lactamase inhibitory activity; type: biochemical; settings: read-out: β-Lactamase Inhibitory Activity I50 (converted)
# Description: (§1) β-Lactamase Inhibitory Activity of MM 27696 sodium salt
# (§2) b = without preincubation
# [1] = molecular target: Klebsiella aerogenes E70 β-Lactamase; test: β-Lactamase inhibitory activity; type: biochemical
# Description: as §1, §2
# [2] = molecular target: Enterobacter cloacae P99 β-Lactamase (Enterobacter cloacae, UniProt P05364); test: β-Lactamase inhibitory activity; type: biochemical; settings: read-out: β-Lactamase Inhibitory Activity I50 (converted)
# Description: as §1, §2
# [3] = molecular target: S. aureus Russell β-Lactamase (Staphylococcus aureus, UniProt P00807); test: β-Lactamase inhibitory activity; type: biochemical; settings: read-out: β-Lactamase Inhibitory Activity I50 (converted)
# Description: as §1, §2
# [4] = system: Staphylococcus aureus Oxford; test: Antibacterial activity, microtitre method; type: cell-based
# From the text: (§3) The antibacterial activity of the preparation of MM 27696 described in the example has been determined by the microtitre method and is reported in The Table.
# (§4) Antibacterial Activity of MM 27696 sodium salt determined
# (§5) by the Microtitre Method
# Bacillus subtilis A = test: Antibacterial activity, microtitre method; type: cell-based
# From the text: as §3, §4, §5
# [5] = system: Streptococcus pyogenes CN10; test: Antibacterial activity, microtitre method; type: cell-based
# From the text: as §3, §4, §5
# [6] = system: Staphylococcus aureus Russell; test: Antibacterial activity, microtitre method; type: cell-based
# From the text: as §3, §4, §5
# Serratia marcescens US20 = test: Antibacterial activity, microtitre method; type: cell-based
# From the text: as §3, §4, §5
# [7] = system: Staphylococcus aureus 1517; test: Antibacterial activity, microtitre method; type: cell-based
# From the text: as §3, §4, §5
# Klebsiella aerogenes A = test: Antibacterial activity, microtitre method; type: cell-based
# From the text: as §3, §4, §5
# E. coli ESS = test: Antibacterial activity, microtitre method; type: cell-based; settings: Escherichia coli
# From the text: as §3, §4, §5
# Escherichia coli 0111 = test: Antibacterial activity, microtitre method; type: cell-based
# From the text: as §3, §4, §5
# Citrobacter freundii E8 = test: Antibacterial activity, microtitre method; type: cell-based
# From the text: as §3, §4, §5
# Proteus morganii I580 = test: Antibacterial activity, microtitre method; type: cell-based; settings: Morganella morganii
# From the text: as §3, §4, §5
# Streptococcus faecalis I = test: Antibacterial activity, microtitre method; type: cell-based; settings: Enterococcus faecalis
# From the text: as §3, §4, §5
# Proteus vulgaris W091 = test: Antibacterial activity, microtitre method; type: cell-based
# From the text: as §3, §4, §5
# Proteus mirabilis C977 = test: Antibacterial activity, microtitre method; type: cell-based
# From the text: as §3, §4, §5
# Proteus rettgeri WM16 = test: Antibacterial activity, microtitre method; type: cell-based; settings: Providencia rettgeri
# From the text: as §3, §4, §5
# Enterobacter cloacae N1 = test: Antibacterial activity, microtitre method; type: cell-based
# From the text: as §3, §4, §5
# Escherichia coli JT 39 = test: Antibacterial activity, microtitre method; type: cell-based; settings: JT39
# From the text: as §3, §4, §5
# [8] = system: Salmonella typhimurium CT10; test: Antibacterial activity, microtitre method; type: cell-based; settings: Salmonella enterica
# From the text: as §3, §4, §5
# Pseudomonas aeruginosa A = test: Antibacterial activity, microtitre method; type: cell-based
# From the text: as §3, §4, §5
# [9] = system: Streptococcus pneumoniae CN33; test: Antibacterial activity, microtitre method; type: cell-based
# From the text: as §3, §4, §5
# Shigella sonnei MB 11967 = test: Antibacterial activity, microtitre method; type: cell-based; settings: MB11967
# From the text: as §3, §4, §5
# Sequence of E. coli JT4 β-Lactamase (P62593 24-286 limits assumed): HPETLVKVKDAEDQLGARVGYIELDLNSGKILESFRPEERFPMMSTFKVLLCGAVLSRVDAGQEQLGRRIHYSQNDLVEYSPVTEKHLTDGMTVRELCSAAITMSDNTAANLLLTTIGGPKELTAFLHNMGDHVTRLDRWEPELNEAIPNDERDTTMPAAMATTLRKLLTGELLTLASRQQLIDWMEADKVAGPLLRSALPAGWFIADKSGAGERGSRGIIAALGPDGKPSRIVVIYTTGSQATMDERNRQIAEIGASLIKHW
# Sequence of S. aureus Russell β-Lactamase (P00807 25-281): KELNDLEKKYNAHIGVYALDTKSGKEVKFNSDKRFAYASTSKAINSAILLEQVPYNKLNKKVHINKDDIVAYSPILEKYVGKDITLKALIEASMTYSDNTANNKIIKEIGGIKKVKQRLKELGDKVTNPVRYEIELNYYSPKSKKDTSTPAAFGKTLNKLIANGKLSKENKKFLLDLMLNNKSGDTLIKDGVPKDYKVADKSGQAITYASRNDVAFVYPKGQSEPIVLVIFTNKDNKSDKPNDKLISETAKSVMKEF
# Sequence of Enterobacter cloacae P99 β-Lactamase (P05364 21-381): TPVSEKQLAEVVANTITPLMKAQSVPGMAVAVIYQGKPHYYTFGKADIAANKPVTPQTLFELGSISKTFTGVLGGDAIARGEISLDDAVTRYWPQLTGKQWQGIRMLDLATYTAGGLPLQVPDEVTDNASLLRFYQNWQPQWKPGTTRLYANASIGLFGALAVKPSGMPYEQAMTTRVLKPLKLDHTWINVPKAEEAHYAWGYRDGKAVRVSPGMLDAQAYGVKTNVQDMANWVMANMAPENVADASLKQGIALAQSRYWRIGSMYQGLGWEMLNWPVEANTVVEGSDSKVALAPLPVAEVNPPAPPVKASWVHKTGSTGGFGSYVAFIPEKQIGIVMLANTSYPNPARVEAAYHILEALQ
structure (smiles),measurement,setting,value
CCC(=O)N/C=C/SC1=C(C(=O)O)N2C(=O)[C@@H]([C@H](C)OS(=O)(=O)O)[C@H]2C1 [MM 27696],IC50,E. coli JT4 β-Lactamase; a = with preincubation,24.6 nM
same,IC50,E. coli JT4 β-Lactamase; b = without preincubation,984 nM
same,β-Lactamase Inhibitory Activity I50,[1]; a = with preincubation,0.003 µg/mL
same,β-Lactamase Inhibitory Activity I50,[1]; b = without preincubation,0.4 µg/mL
same,IC50,[2]; a = with preincubation,4.92 nM
same,IC50,[2]; b = without preincubation,615 nM
same,IC50,[3]; a = with preincubation,73.8 nM
same,IC50,[3]; b = without preincubation,> 123000 nM
same,MIC,[4],0.4 µg/mL
same,MIC,Bacillus subtilis A,< 0.1 µg/mL
same,MIC,[5],< 0.1 µg/mL
same,MIC,[6],0.8 µg/mL
same,MIC,Serratia marcescens US20,6.2 µg/mL
same,MIC,[7],100 µg/mL
same,MIC,Klebsiella aerogenes A,0.4 µg/mL
same,MIC,E. coli ESS,< 0.1 µg/mL
same,MIC,Escherichia coli 0111,0.8 µg/mL
same,MIC,Citrobacter freundii E8,3.1 µg/mL
same,MIC,Proteus morganii I580,0.2 µg/mL
same,MIC,Streptococcus faecalis I,12.5 µg/mL
same,MIC,Proteus vulgaris W091,0.4 µg/mL
same,MIC,Proteus mirabilis C977,< 0.1 µg/mL
same,MIC,Proteus rettgeri WM16,0.4 µg/mL
same,MIC,Enterobacter cloacae N1,0.2 µg/mL
same,MIC,Escherichia coli JT 39,0.2 µg/mL
same,MIC,[8],0.2 µg/mL
same,MIC,Pseudomonas aeruginosa A,50 µg/mL
same,MIC,[9],< 0.1 µg/mL
same,MIC,Shigella sonnei MB 11967,< 0.1 µg/mL
